Results: US8741967B2, “Use of unsaturated sphingosine compounds as chemotherapeutic agents for the treatment of cancer” (Children's Hospital & Research Center at Oakland, priority 2007, dated 2014)
“Also recorded” adds a separate entry of the source. One block for each compound: values may come before it.

Columns and labels:
HT29 cells [1] = experiment: Viability of HT29 colon cancer cells; format: cell-based, human
Procedure: (§1) The human colon cancer cell lines, HT29, SW480, HCT116 and DLD1 were treated with 10 μM C14Δ4:6Sd (also referred to herein as 2-aminotetradeca-4,6-diene-1,3-diol) and viability was determined at 24 hours.
HT29 cells were then incubated with various sphingadiene compounds and viability was determined at 24 hours.
HT29 cells were incubated with various concentrations of C14Δ4:6Sd and viability was determined at 24 hours or incubated with 10 μM C14Δ4:6Sd and viability was determined at various time points.
In a further experiment, HT29 cells were treated with the PI3K inhibitor wortmannin and various concentrations of C14Δ4:6Sd and viability was determined at 24 hours by MTT assay. The results confirmed synergistic inhibition of […] by C14Δ4:6Sd and wortmannin (see FIG. 8C).

4EBP [2] = experiment: 4EBP phosphorylation by western blotting in HT29 cells; format: cell-based, human; settings: HT29, 10 μM, 0.5 to 24 hours
Procedure: (§2) To address the possibility that sphingadienes might promote cell death by inhibiting the PI3K/AKT pathway, the effect of sphingadienes on phosphorylation of AKT, PTEN, and the AKT substrate 4EBP, which is a regulator of protein translation, was evaluated using immunoblotting of whole cell extracts.
(§3) HT29 cells were incubated with 10 μM C14Δ4:6Sd for 0.5, 1, 3, 6 and 24 hours and the level of Akt and 4EBP phosphorylation was evaluated at each time point by western blotting. […] The ratios of phosphorylated Akt to total Akt and of phosphorylated 4EBP to total 4EBP, were quantified by densitometry using ImageJ software (ImageJ is a public domain Java image processing program inspired by NIH Image; available at rsbweb.nih.gov/ij/index.html) and are shown in FIG. 7A and FIG. 7B, respectively.
(§4) In an additional experiment, HT29 cells were treated for various time periods with 10 μM C14Δ4:6Sd or C18Δ4:8Sd and the level of phosphorylation of Akt and 4EBP was evaluated by western blotting at 0.5, 1.0 and 3.0 hours. The results confirmed that sphingadienes inhibited phosphorylation of Akt and 4EBP, even at 0.5 hours of exposure, thus inhibiting signaling through Akt and 4EBP.

Akt = Akt phosphorylation by western blotting in HT29 cells; format: cell-based, human; settings: HT29, 10 μM, 0.5 to 24 hours
Procedure: as §2, §3, §4

[3] = molecular target: T1, murine Sphingosine Kinase 1 (SK1) (Mus musculus, UniProt Q8CI15); experiment: Phosphorylation by SK1 in extracts of HEK293 cells overexpressing SK1 (HPLC); format: biochemical; settings: cell extracts preincubated for 10 minutes
T1 construct: expressed in transfected cells; host or cells: HEK293
Procedure: The formed phosphorylated sphingoid base products were measured by HPLC.
In order to test if preincubation with C14-So or C14Δ4:6Sd has an inhibitory effect on the ability of the SK enzyme to phosphorylate the C17-So compound, cell extracts were preincubated for 10 minutes with either C14-So or C14Δ4:6Sd followed by C17-So.

HT29 cells [4] = experiment: Uptake and metabolism in HT29 colon cancer cells (LC-MS); format: in vitro ADME, human; settings: for conversion to the phosphorylated compound in intact cells / uptake rate compared with long chain sphingosine / uptake rate by cells / clearance / metabolism in cells after lipid removal: HT29, 10 μM; for conversion to the phosphorylated compound in intact cells: LC-MS; for uptake rate compared with long chain sphingosine: not shown; for uptake rate by cells: serum-free media; for clearance / metabolism in cells after lipid removal: then incubated without lipids for up to 6 hours
Procedure: In this example, the uptake and metabolism of C14 sphingadienes was compared with that of synthetic C17 sphingosine (as a substitute for endogenous C18 sphingosine which is already present in cells) and C14 sphingosine (to assess the importance of the second double bond) by HT29 colon cancer cells. Toward that end, cells were incubated with 10 μM sphingadiene in serum-free media, followed by cell harvest at various time points, lipid extraction and analysis by mass spectrometry of SD, SD-phosphate, C14 sphingosine and corresponding S1Ps.
HT29 cells were incubated for 0.25 hours, 0.5 hours and 1 hour in media containing 10 μM C14-So (Δ4) (sphingosine) or C14Δ4:6Sd (see FIG. 9A). HT29 cells were incubated for 1 hour in media containing 10 μM C14-So or C14Δ4:6Sd. Media was then removed and cells were incubated without lipids for 1, 3 and 6 hours (FIG. 9B). At each time point, cells were harvested, lipids were extracted and the cellular contents of C14-So or C14Δ4:6Sd and the corresponding phosphorylated compounds were analyzed by LC-MS.

DLD1 cells = experiment: Viability of DLD1 colon cancer cells; format: cell-based; settings: Homo sapiens, DLD-1; DLD1, 10 μM, 24 hours; read-out: viability, % of controls
Procedure: as §1

LC3 = LC3 activation (LC3-1 to LC3-2 shift) by western blotting in SW480 cells transfected with myr-Akt; format: cell-based, human; settings: various concentrations
Procedure: (§5) Autophagy is a cell process used to degrade components of the cytoplasm and functions as a cell survival mechanism during nutrient deprivation (P. Codogno and A J Meijer, Cell Death Differ. 2005 November; 12 Suppl 2:1509-18). […] In order to further investigate this phenomenon, LC3 (microtubule associated protein 1 light chain 3) was used as a marker for this process.
(§6) In one experiment, SW480 cells were transfected with a GFP-LC3 construct and treated for 4 h with 5 μM C14Δ4:6Sd. […] In another experiment, SW480 cells transfected with myr-Akt were treated with various concentrations of C14Δ4:6Sd and the amount of LC3 activation (shift from LC3-1 to LC3-2) was verified by western blotting.

ApcMin/+ mice = experiment: Intestinal polyps in ApcMin/+ mice; format: in vivo; settings: gavage 2.5 mg/day, day 10, versus vehicle control
Procedure: (§7) Murine experiments were performed to investigate the in vivo effect of C14Δ4:6Sd on the development of polyps in intestinal tissue using an established animal model system having an inherited genetic defect underlying spontaneous multiple intestinal neoplasia (Min) (Polakis, 1997 Biochim Biophys. Acta. 1332:F127; Kucherlapati et al., 2001 Semin. Canc. Biol. 11:219; Sansom et al., 2004 Genes Dev. 18:1385). Ten 12 week-old male ApcMin/+ mice (available from Jackson Laboratory, Bar Harbor, Me.) were administered by gavage 2.5 mg/day C14Δ4:6Sd and ten mice received vehicle control. Mice were euthanized by CO2 asphyxiation and intestinal tissues harvested at day 10. Gross polyps were counted and measured (diameter). […] Polyps were further analyzed for phosphorylated 4EBP by western blotting and it was confirmed that sphingadienes inhibited 4EBP phosphorylation in vivo.

SW480 cells [5] = experiment: Autophagy: GFP-LC3 fluorescence microscopy in SW480 cells; format: cell-based, human; settings: SW480 transfected with GFP-LC3, 5 μM, 4 h
Procedure: as §5, §6

HCT116 cells = experiment: Viability of HCT116 colon cancer cells; format: cell-based; settings: Homo sapiens, HCT-116; HCT116, 10 μM, 24 hours; read-out: viability, % of controls
Procedure: as §1

4EBP [6] = experiment: 4EBP phosphorylation by western blotting in SW480 cells; format: cell-based, human; settings: SW480, 10 μM, up to 5 hours
4EBP [7] = experiment: Phosphorylated 4EBP in polyps of ApcMin/+ mice by western blotting; format: in vivo; settings: gavage 2.5 mg/day, day 10
Procedure: as §7

SK = experiment: Competition studies with sphingosine and SD on sphingosine kinase; settings: not shown, listed as C14 SD
HT29 cells [8] = experiment: Caspase-3 activity assay (apoptosis) in HT29 colon cancer cells; format: cell-based, human
Procedure: To assess the effect of C14 sphingadienes on colon cancer cell viability, HT29, DLD1 and SW480 colon cancer cells (available from American Type Culture Collection (ATCC), Manassas, Va.) were propagated in DME-H21 plus 10% serum until ⅔ confluent. Media was then replaced with serum-free media containing 10 μM sphingadienes (SD). After 24 hours, cells were harvested, and whole cell extracts were prepared for caspase-3 activity assays. Caspase-3 activity was determined using substrate Ac-DEVD-pNA (Biomol, Plymouth Meeting, Pa.) as described (Oskouian, B., et al., Proc Natl Acad Sci USA 103: 17384-17389, 2006).
In an additional experiment, HT29 cells were treated with 10 μM sphingoid bases or ceramides and caspase-3 activity was determined at 24 hours.
HT29 cells transfected with constitutively active myristoylated Akt (myr-Akt) were treated with 10 μM C14Δ4:6Sd and caspase 3 activity was determined at 24 hours.
(§8) HT29 cells were incubated for 6 hours with 10 μM C14Δ4:6Sd and the translational activity of the cell cytosol was measured with the DUAL-LUCIFERASE® Reporter Assay System (Promega, Madison, Wis.). […] In another experiment, HT29 cells were pretreated with inhibitors of p38 (SB20350), MEK (PD98059), PI3K (LY294002) and JNK (JNK inhibitor 2) and caspase 3 activity was determined following an 18 hour incubation with 10 μM C14Δ4:6Sd.

protein synthesis = experiment: Translational activity of HT29 cell cytosol (DUAL-LUCIFERASE Reporter Assay System); format: cell-based, human; settings: HT29, 10 μM, 6 hours
Procedure: as §8

SW480 cells [9] = experiment: Viability of SW480 colon cancer cells; format: cell-based; settings: Homo sapiens; SW480, 10 μM, 24 hours; read-out: viability, % of controls
Procedure: as §1

[10] = molecular target: T2, human Sphingosine-1-Phosphate Lyase (SPL) (Homo sapiens, UniProt O95470); experiment: Cleavage by SPL in HEK 293 cells overexpressing SPL; format: biochemical
T2 construct: expressed in transfected cells; host or cells: HEK 293
T2 sequence (O95470 1-568): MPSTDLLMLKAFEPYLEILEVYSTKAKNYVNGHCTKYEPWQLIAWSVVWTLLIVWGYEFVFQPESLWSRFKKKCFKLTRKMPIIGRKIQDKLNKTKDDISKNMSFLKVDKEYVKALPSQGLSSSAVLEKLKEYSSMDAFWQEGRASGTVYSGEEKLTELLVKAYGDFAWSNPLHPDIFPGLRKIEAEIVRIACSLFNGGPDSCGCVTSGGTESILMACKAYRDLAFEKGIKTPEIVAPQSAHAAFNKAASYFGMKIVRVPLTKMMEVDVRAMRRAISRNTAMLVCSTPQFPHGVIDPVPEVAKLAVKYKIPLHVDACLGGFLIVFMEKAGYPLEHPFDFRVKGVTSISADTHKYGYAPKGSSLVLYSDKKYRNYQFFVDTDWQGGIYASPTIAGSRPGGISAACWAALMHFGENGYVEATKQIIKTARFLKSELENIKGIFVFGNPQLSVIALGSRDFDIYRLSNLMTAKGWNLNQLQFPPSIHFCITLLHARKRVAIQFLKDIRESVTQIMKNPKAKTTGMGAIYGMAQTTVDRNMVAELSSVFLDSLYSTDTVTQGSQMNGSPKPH

[11] = HT29, various concentrations, 24 hours
[12] = HT29 pretreated with inhibitor, 18 hour incubation with 10 μM

T1 sequence (Q8CI15 whole entry): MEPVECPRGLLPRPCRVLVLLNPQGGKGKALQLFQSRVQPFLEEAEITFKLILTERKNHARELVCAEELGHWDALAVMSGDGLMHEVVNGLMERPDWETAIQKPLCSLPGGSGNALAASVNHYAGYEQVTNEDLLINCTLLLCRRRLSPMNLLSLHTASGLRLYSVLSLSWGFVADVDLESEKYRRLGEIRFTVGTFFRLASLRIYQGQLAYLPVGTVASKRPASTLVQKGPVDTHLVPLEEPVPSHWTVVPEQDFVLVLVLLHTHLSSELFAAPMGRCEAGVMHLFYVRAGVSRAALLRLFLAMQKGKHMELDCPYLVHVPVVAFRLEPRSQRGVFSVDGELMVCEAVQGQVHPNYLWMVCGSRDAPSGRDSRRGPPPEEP

SMILES: CCCCCC=CCCC=CC(O)C(N)CO (centres unmarked) [C14Δ4:8Sd]
cytotoxicity (viability) (HT29 cells [1]; [11]): cytotoxic

SMILES: CCCCCCCCCCC/C=C/C=C/C(O)C(N)CO (centres unmarked) [C18Δ4:6Sd]
cytotoxicity (viability) (HT29 cells [1]; [11]): cytotoxic

SMILES: CCCCCCCCC/C=C/CC/C=C/C(O)C(N)CO (centres unmarked) [C18Δ4:8Sd]
phosphorylation of 4EBP (4EBP [2]): inhibited | phosphorylation of Akt (Akt): inhibited | cytotoxicity (viability) (HT29 cells [1]; [11]): cytotoxic

inhibitory effect on phosphorylation of C17-So by SK [3]: no inhibitory effect was observed | conversion to the phosphorylated compound in intact cells (HT29 cells [4]): efficiently phosphorylated | uptake rate compared with long chain sphingosine (HT29 cells [4]): faster | uptake rate by cells (HT29 cells [4]): taken up at equal rates | clearance / metabolism in cells after lipid removal (HT29 cells [4]): completely metabolized
SMILES: CCCCCCCCCCCCC/C=C/[C@@H](O)[C@@H](N)CO [C14-So, reference compound]
clearance / metabolism in cells after lipid removal (HT29 cells [4]; listed as C14 sphingosine): cleared from the cells in hours; also recorded: rapidly metabolized

inhibition of SK (SK): inhibit SK | inhibitory effect on phosphorylation of C17-So by SK [3]: no inhibitory effect was observed | conversion to the phosphorylated compound in intact cells (HT29 cells [4]; listed as C14 SDs): not converted to SD-phosphates | uptake rate compared with long chain sphingosine (HT29 cells [4]): faster | uptake rate by cells (HT29 cells [4]): taken up at equal rates | clearance / metabolism in cells after lipid removal (HT29 cells [4]): remains unaltered | clearance / metabolism in cells after lipid removal (HT29 cells [4]; listed as C14 SDs): remained in the cells for many hours | time remaining in cells after lipid removal (HT29 cells [4]; HT29, FIG. 3): 6 h
SMILES: CCCCCCC/C=C/C=C/C(O)C(N)CO (centres unmarked) [C14Δ4:6Sd, 2-aminotetradeca-4,6-diene-1,3-diol]
viability at 10 µM (DLD1 cells): < 50% | LC3 activation (shift from LC3-1 to LC3-2) (LC3): autophagic activity | size (diameter) of intestinal polyps (ApcMin/+ mice): reduced the size | number of intestinal polyps (ApcMin/+ mice; p<0.0027): significantly reduced | phosphorylation of 4EBP (4EBP [2]): inhibited | autophagosome formation (GFP-LC3) (SW480 cells [5]): autophagosome formation | viability at 10 µM (HCT116 cells): > 50% | phosphorylation of 4EBP (4EBP [6]): reduced phosphorylation | 4EBP phosphorylation in polyps in vivo (4EBP [7]): inhibited | caspase 3 activity in combination with JNK inhibitor (JNK inhibitor 2) (HT29 cells [8]; [12]): not synergistic | caspase 3 activity in combination with MEK inhibitor (PD98059) (HT29 cells [8]; [12]): not synergistic | caspase 3 activity in combination with PI3K inhibitor LY294002 (HT29 cells [8]; [12]): synergistic | caspase 3 activity in combination with p38 inhibitor (SB20350) (HT29 cells [8]; [12]): not synergistic | caspase 3 activity / cell death in HT29 cells transfected with myr-Akt (HT29 cells [8]; constitutively active myristoylated Akt, 10 μM, 24 hours): protected against sphingadiene-induced cell death | Luciferase activity (translational activity, protein synthesis) (protein synthesis): reduced by more than half | phosphorylation of Akt (Akt): inhibited | dose and time dependence of cytotoxicity (HT29 cells [1]; HT29, various concentrations at 24 hours or 10 μM at various time points): dose- and time-dependent | cytotoxicity (viability) (HT29 cells [1]; [11]): cytotoxic | viability in combination with PI3K inhibitor wortmannin (HT29 cells [1]; HT29, various concentrations, 24 hours, MTT assay): synergistic | viability at 10 µM (HT29 cells [1]; Homo sapiens, HT-29, HT29, 10 μM, 24 hours, read-out: viability, % of controls): < 50% | viability at 10 µM (SW480 cells [9]): < 50%

SMILES: CCCCCCCCCC=CC(O)C(N)COP(=O)(O)O (centres unmarked) [C14So-1P]
processing of C17So-1P following preincubation [10]: No significant difference
